Measured values as given in patent US20260325533A1, “CDK INHIBITOR COMPOUNDS” (ALEKSIA THERAPEUTICS, INC., priority 2023, published 2026).
Read-outs that look alike come from different tables or passages of the source.

Key:
CDK2/CCNE1 = CDK2/CCNE1 (Homo sapiens, UniProt P24941); experiment: CDK2 homogeneous time-resolved fluorescence (HTRF) kinase assay; format: biochemical; details: CDK2/CCNE
Summary of the method: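 An HTRF format measures CDK2/CCNE1 (3 nM) phosphorylating a 4E-BP1 Thr37/46 peptide at high (1 mM) ATP. Reactions run one hour at 23 °C, then EDTA-quenched and probed with Eu-labelled phospho-specific antibody.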

CDK1/CCNB1 = CDK1/CCNB1 (Homo sapiens, UniProt P06493); experiment: CDK1 homogeneous time-resolved fluorescence (HTRF) kinase assay; format: biochemical; details: CDK1/CCNB; >250 nM marked x; read-out: CDK1/CCNB IC50 >250 nM
Sequence of CDK1/CCNB1 (P06493 whole entry): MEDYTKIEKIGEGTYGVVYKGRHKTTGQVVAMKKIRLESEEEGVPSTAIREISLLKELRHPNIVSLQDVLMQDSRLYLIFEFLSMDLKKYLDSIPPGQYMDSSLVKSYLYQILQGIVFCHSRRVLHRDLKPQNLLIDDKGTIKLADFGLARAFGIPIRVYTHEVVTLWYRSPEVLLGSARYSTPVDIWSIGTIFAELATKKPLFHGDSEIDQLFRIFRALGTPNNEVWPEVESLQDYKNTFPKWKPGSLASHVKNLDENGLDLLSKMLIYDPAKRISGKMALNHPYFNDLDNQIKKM
Sequence of CDK1/CCNB1 (P14635 whole entry partner): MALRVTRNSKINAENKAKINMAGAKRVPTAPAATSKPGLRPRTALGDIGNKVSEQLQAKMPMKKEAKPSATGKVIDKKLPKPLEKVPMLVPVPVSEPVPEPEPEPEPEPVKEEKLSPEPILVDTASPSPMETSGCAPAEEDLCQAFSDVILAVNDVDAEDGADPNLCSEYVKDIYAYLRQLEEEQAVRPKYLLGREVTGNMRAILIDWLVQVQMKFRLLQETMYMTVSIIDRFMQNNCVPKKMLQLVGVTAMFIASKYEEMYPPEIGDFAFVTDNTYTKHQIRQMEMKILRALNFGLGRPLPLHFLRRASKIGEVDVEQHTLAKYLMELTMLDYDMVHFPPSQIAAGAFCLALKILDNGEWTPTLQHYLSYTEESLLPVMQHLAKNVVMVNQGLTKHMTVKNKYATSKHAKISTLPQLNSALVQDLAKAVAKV
Summary of the method: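 Read-out: TR-FRET (Eu anti-phospho-4E-BP1 Thr37/46 antibody, 2 nM; 665 nm or 665/615 ratio) after 60 min phosphorylation of 50 nM ULight-peptide by 0.5 nM CDK1/CCNB1 at 1 mM ATP, 23 °C. Compound preincubated 20 min with enzyme; 1% DMSO.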

[1] = 25-250 nM marked x, read-out: CDK2/CCNE IC50 25-250 nM
[2] = >250 nM marked x, read-out: CDK2/CCNE IC50 >250 nM

IC50 (CDK2/CCNE1; [1]) [nM] | IC50 (CDK1/CCNB1) [nM] | IC50 (CDK2/CCNE1; [2]) [nM] | Compound
25 to 250 | > 250 |  | CS(=O)(=O)N1CCC(Nc2cc3c(N4CCCCC4)nc(C(F)F)cc3cn2)CC1 [Ex 118, 7-(difluoromethyl)-N-(1-(methylsulfonyl)piperidin-4-yl)-5-(piperidin-1-yl)-2,6-naphthyridin-3-amine]
 | > 250 | > 250 | CS(=O)(=O)N1CCC(Nc2cc3c(N4CCCCC4)nc(CCl)cc3cn2)CC1 [Ex 119, 7-(chloromethyl)-N-(1-(methylsulfonyl)piperidin-4-yl)-5-(piperidin-1-yl)-2,6-naphthyridin-3-amine]
25 to 250 | > 250 |  | Cn1cc(-c2nccc3cnc(Nc4ccc(S(C)(=O)=O)cc4)cc23)nn1 [Ex 125, 5-(1-methyl-1H-1,2,3-triazol-4-yl)-N-(4-(methylsulfonyl)phenyl)-2,6-naphthyridin-3-amine]
25 to 250 | > 250 |  | CS(=O)(=O)c1ccc(Nc2cc3c(-c4ccc5[nH]cnc5c4)nccc3cn2)cc1 [Ex 126, 5-(1H-benzo[d]imidazol-5-yl)-N-(4-(methylsulfonyl)phenyl)-2,6-naphthyridin-3-amine]
25 to 250 | > 250 |  | N#CC1CCN(c2nccc3cnc(Nc4ccc(C=O)cc4)cc23)CC1 [Ex 128, 1-(7-((4-formylphenyl)amino)-2,6-naphthyridin-1-yl)piperidine-4-carbonitrile]
25 to 250 | > 250 |  | N#CC1CCN(c2nccc3cnc(Nc4ccc(CO)cc4)cc23)CC1 [Ex 132, 1-(7-((4-(hydroxymethyl)phenyl)amino)-2,6-naphthyridin-1-yl)piperidine-4-carbonitrile]
25 to 250 | > 250 |  | N#CC1CCN(c2nccc3cnc(Nc4ccc(CCO)cc4)cc23)CC1 [Ex 133, 1-(7-((4-(2-hydroxyethyl)phenyl)amino)-2,6-naphthyridin-1-yl)piperidine-4-carbonitrile]
25 to 250 | > 250 |  | N#CC1CCN(c2nccc3cnc(Nc4cccc(CO)c4)cc23)CC1 [Ex 134, 1-(7-((3-(hydroxymethyl)phenyl)amino)-2,6-naphthyridin-1-yl)piperidine-4-carbonitrile]
25 to 250 | > 250 |  | CS(=O)(=O)c1ccc(Nc2cc3c(-c4cc5cc[nH]c5cn4)nccc3cn2)cc1 [Ex 135, N-(4-(methylsulfonyl)phenyl)-5-(1H-pyrrolo[2,3-c]pyridin-5-yl)-2,6-naphthyridin-3-amine]
25 to 250 | > 250 |  | N#CC1CCN(c2nccc3cnc(Nc4cccc(C=O)c4)cc23)CC1 [Ex 140, 1-(7-((3-formylphenyl)amino)-2,6-naphthyridin-1-yl)piperidine-4-carbonitrile]
25 to 250 | > 250 |  | N#CC1CCN(c2nccc3cnc(Nc4cccc(CCO)c4)cc23)CC1 [Ex 143, 1-(7-((3-(2-hydroxyethyl)phenyl)amino)-2,6-naphthyridin-1-yl)piperidine-4-carbonitrile]
 | > 250 | > 250 | Cn1nncc1-c1nccc2cnc(Nc3ccc(S(C)(=O)=O)cc3)cc12 [Ex 144, 5-(1-methyl-1H-1,2,3-triazol-5-yl)-N-(4-(methylsulfonyl)phenyl)-2,6-naphthyridin-3-amine]
25 to 250 | > 250 |  | CN1CCC(c2nccc3cnc(Nc4ccc(S(C)(=O)=O)cc4)cc23)CC1 [Ex 151, 5-(1-methylpiperidin-4-yl)-N-(4-(methylsulfonyl)phenyl)-2,6-naphthyridin-3-amine]
25 to 250 | > 250 |  | CCN1CCC(c2nccc3cnc(Nc4ccc(S(C)(=O)=O)cc4)cc23)CC1 [Ex 152, 5-(1-ethylpiperidin-4-yl)-N-(4-(methylsulfonyl)phenyl)-2,6-naphthyridin-3-amine]
 | > 250 | > 250 | CS(=O)(=O)c1ccc(Nc2cc3c(C4CCN(CC5CCCCC5)CC4)nccc3cn2)cc1 [Ex 153, 5-(1-(cyclohexylmethyl)piperidin-4-yl)-N-(4-(methylsulfonyl)phenyl)-2,6-naphthyridin-3-amine]
